The record followed here is patent publication US10206997B2, “Facilitator-DNA combination vaccine” (priority 2011, dated 2019).

The subject of experiment [1] is RAW264.7. Nature of the experiment: APC maturation markers and innate cytokine secretion with pcD-S2. The class given is cell-based. As to conditions: pcD-S2 with vs without amiloride. As for the experimental part: (§1) With respect to cell culture and inhibiter treatment, RAW264.7 and DC2.4 were cultured in DMEM/10% FCS, and JAWSII was cultured in DMEM/10% FCS with GMCSF (1000 U/ml, Peprotech, USA). Amiloride (Sigma-Aldrich, USA) was prepared as 10 mM solution and was diluted to 1 mM, 100 uM, 10 uM in DMEM medium before treatment. After culture medium was removed, cells were treated with amiloride, MβCD (5 mM, Sigma) or Fillipin (10 ng/ml, sigma) at 37° C. for 1 h. LPS (10 ng/ml, sigma) or 10 ng/ml DNA in DMEM was added at 37° C. for 0.5 h, after wash, culture medium was added and cells were cultured.

Experiment [2] has as its system CD8+ T effectors. The experiment can be described thus: Multi-color flow cytometry of CD8+ T effectors (IFN-γ, perforin, granzyme B). It counts as in vivo, mice. To be noted: HBsAg restimulation. As for the experimental part: (§2) 4 h later, both inguinal lymph nodes were collected.
With respect to multi-color flow cytometry, a multi-color panel was set up with anti-CD3, anti-CD8, anti-IFN-γ, anti-perforin and anti-granzyme B. After restimulation in vitro by sAg for 24 h or S208-215 for 12 h, following monensin block for 6 h, splenocyte was fixed, penetrated and stained. Data was collected with BD Aria and analyzed with Flowjo (Tree Star, Ashland, USA).

Experiment [3] has as its system HBsAg. Nature of the experiment: Antibody against HBsAg after footpad immunization. It counts as in vivo, C57B/6 mice.
Experiment [4] concerns RAW264.7, JAWSII and DC2.4 cell lines. Nature of the experiment: Cy5-pEGFP plasmid entry and expression in antigen presenting cell lines. The class given is cell-based. As for the experimental part: as §1
With respect to plasmid preparation and fluorescence conjugation, pEGFP (Clontech, USA) and pcD-S2 plasmid were prepared from DH5a culture, purified by EndoFree Plasmid Maxi Kit (Qiagen, Germany) and endotoxin was below 10 EU/mg by LAL test. Cy5 was conjugated to plasmid with Minis Label IT Kit (Minis, USA) as manual instructed.

The subject of experiment [5] is Cy5-plasmid+ cells in lymph nodes. The experiment can be described thus: Cy5-pEGFP plasmid entry in vivo, Cy5+ cells in draining lymph nodes by FACS. To be noted: hind footpad, 4 hrs. Also on record: species or system C57B/6 mice. As for the experimental part:
as §2
A general note: Flow cytometry measures light scatter and fluorescence of single cells or particles in a stream.

For experiment [6], the system named is CD8 T cells co-cultured with peritoneal macrophages or spleen dendritic cells. Nature of the experiment: Co-culture of treated APCs with purified CD8 T cells. The class given is cell-based, mice. To be noted: macrophages and DCs co-culture; pcD-S2 with vs without amiloride. How it is done:
With respect to co-cultures, pcD-S2 (10 μg/ml) with or without 100 μM amiloride treat APCs, peritoneal macrophage or spleen dendritic cell, were cultured for 2 days. At day 3, purified CD8 T cell (R&D systems, USA) was added into culture with APC:T ratio of 1:5, 1:2, 1:1. At day 8, cells were collected and restimulated with S208-215 (10 μg/ml). PMA+Ionomycin was added as positive control for restimulation.

As for `N=C(N)NC(=O)c1nc(Cl)c(N)nc1N` [amiloride], the “expression of TNF and IFN-γ” value in experiment [1] (RAW264.7) was “higher levels of expression of TNF and IFN-γ”. In addition, the “expression of maturation markers CD40, CD80 and CD86” value in experiment [1] (RAW264.7 in vitro) was “higher levels of expression of CD40, CD80 and CD86”. Moreover, the “triple positive cells in HBsAg stimulated CD8 response” value in experiment [2] was “triple positive cells could also be observed”. Also, in experiment [3] (antibody and DTH experiments), the “most effective dose of amiloride for in vivo treatment” value came out at 1 mM. In addition, the “levels of antibody against HBsAg” value in experiment [3] (footpad immunization, vs pcD-S2 alone, dose dependent) is on record as “increased”. In addition, the GFP expression result in experiment [4] (1 mM amiloride pre-treatment, after 3 days culture, vs un-treated cells) is reported as “significantly higher level of GFP”. Moreover, the “GFP expression relative to liposome treated cells” value in experiment [4] (1 mM amiloride, 3 days) is “comparable with that of liposome treated cells”. Besides, the “uptake of Cy5-labeled pEGFP plasmids” value in experiment [4] (pre-treated with 1 mM amiloride for 1 h, within 2 hrs, vs un-treated cells) was “significantly taken up”. Besides, the “percentage of Cy5-plasmid+ cells in lymph nodes (LN)” value is “increased” in experiment [5] (10 μM amiloride), “peaked” in experiment [5] (100 μM amiloride) and “decreased” in experiment [5] (1 mM amiloride). Moreover, in experiment [6], the “percentage of S208-215 specific triple positive CD8 T effectors” value is “significantly increased”.
